From patent US20130152233A1, “5-FLUOROCYTOSINE AS A SEED TREATMENT AGENT TO CONTROL PLANT DISEASE” (Dow AgroSciences LLC, priority 2011, published 2013)

Test system: Mycosphaerella graminicola; anamorph: Septoria tritici; Bayer code SEPTTR
Assay: Fungicidal activity as a seed treatment for leaf blotch of wheat (SEPTTR), treated 'Yuma' wheat seeds
Type: in vivo
Method: Evaluation of Fungicidal Activity as a Seed Treatment for Leaf Blotch of Wheat (Mycosphaerella graminicola; anamorph: Septoria tritici; Bayer code […]) Seeds of wheat variety 'Yuma' were treated with a 1% weight-to-volume (w/v) solution of 5-fluorocytosine in water at rates of 16.5, 5.5, 1.8, and 0 grams of active ingredient per 100 kilograms (g ai/100 kg) of seeds. A red dye and a polymer blend were included in the formulation as inert ingredients. Seeds were allowed to dry thoroughly and were sown 3 days (trial 1) or 5 weeks (trials 2 and 3) after treatment. Seeds (10-12 seeds/pot) were planted in 4 square inch pots containing 50% mineral soil/50% soil-less Metro mix. Eleven-day-old seedlings were inoculated with an aqueous spore suspension of Septoria tritici, and 6-10 pots of plants were inoculated for each fungicide rate. After inoculation, plants were kept in 100% relative humidity three days to allow establishment of infection. The plants were then transferred to a greenhouse until disease developed. When disease on untreated plants was fully expressed , disease severities on treated plants were assessed. […] Trial 1 was the average of 10 pots of plants; Trial 2 was the average of 6 pots of plants; and Trial 3 was the average of 6 pots of plants placed in weigh boats in order to prevent possible loss of the 5-fluorocytosine from soil leaching. The following tables include data showing the activity of 5-fluorocytosine when evaluated in these experiments. The effectiveness of 5-fluorocytosine in controlling disease was determined by assessing the severity of disease on treated plants, then converting the severity to percent control based on the level of disease on untreated, inoculated plants.

SMILES: Nc1nc(=O)[nH]cc1F [5-fluorocytosine]
- % Disease control (SEPTTR) (Trial 1, 1.8 g ai/100 kg seeds, sown 3 days after treatment, average of 10 pots): D (1-25)
- % Disease control (SEPTTR) (Trial 1, 5.5 g ai/100 kg seeds, sown 3 days after treatment, average of 10 pots): C (26-50)
- % Disease control (SEPTTR) (Trial 1, 16.5 g ai/100 kg seeds, sown 3 days after treatment, average of 10 pots): A (76-100)
- % Disease control (SEPTTR) (Trial 2, 1.8 g ai/100 kg seeds, sown 5 weeks after treatment, average of 6 pots): C (26-50)
- % Disease control (SEPTTR) (Trial 2, 5.5 g ai/100 kg seeds, sown 5 weeks after treatment, average of 6 pots): A (76-100)
- % Disease control (SEPTTR) (Trial 2, 16.5 g ai/100 kg seeds, sown 5 weeks after treatment, average of 6 pots): A (76-100)
- % Disease control (SEPTTR) (Trial 3, 1.8 g ai/100 kg seeds, sown 5 weeks after treatment, 6 pots in weigh boats): C (26-50)
- % Disease control (SEPTTR) (Trial 3, 5.5 g ai/100 kg seeds, sown 5 weeks after treatment, 6 pots in weigh boats): A (76-100)
- % Disease control (SEPTTR) (Trial 3, 16.5 g ai/100 kg seeds, sown 5 weeks after treatment, 6 pots in weigh boats): A (76-100)
- control of SEPTTR (in words) (test rate of 16.5 g ai/100 kg seeds): significant level of control
